This is an account of results in patent US20030022932A1, “Methods for regulating bacteria” (priority 2001, published 2003).

This experiment deals with Pseudomonas aeruginosa. The experiment is described as follows: agar bead model of rat chronic respiratory infection (quantitative lung pathology, histopathology). The format is in vivo. As to conditions: 7 days post-infection. The procedure:
The following Examples illustrate the effect of normal flora and the presence of autoinducer-2 (AI-2) on Pseudomonas aeruginosa infection in the agar bead model of rat chronic respiratory infection. Groups of 15 rats (male Sprague-Dawley 180-200 grams) were inoculated intratracheally with 0.05 mL suspensions of bacteria embedded in agar beads. Seven days post-infection each group was treated as follows: (1) five rats—lungs removed for quantitative microbiology; (2) five rats—bronchoaveolar lavage (BAL) were obtained and analyzed for total cell counts, neutrophils, neutrophil elastase and AI-2 activity; and (3) five rats—lungs removed for histology (quantitative pathology). In the microphotographs shown in FIGS. 4-7, the dark areas indicate regions of consolidation, an indication of tissue damage. An α-hemolytic Streptococcus isolate (designated CFX5) from a cystic fibrosis patient was used to supply naturally synthesized AI-2 in vivo.
Rats inoculated with agar beads containing Pseudomonas aeruginosa alone yielded the quantitative pathology shown in FIG. 3 (PAO), and the histopathology shown in the microphotograph of FIG. 4
Rats inoculated with agar beads containing Pseudomonas aeruginosa alone and exposed to synthetic AI-2 yielded the quantitative pathology shown in FIG. 3 (PAO/AI-2), and the histopathology shown in FIG. 5.
Rats inoculated with agar beads containing Pseudomonas aeruginosa +α-hemolytic Streptococcus (CFX5) yielded the quantitative pathology shown in FIG. 3 (PAO/NF), and the histopathology shown in FIG. 6.
Rats inoculated with agar beads containing Pseudomonas aeruginosa +α-hemolytic Streptococcus (CFX5), treated daily for six days with aerosolized QXO18 (2-pentyl-2-cyclopenten-1-one), an AI-2 antagonist, yielded the quantitative pathology shown in FIG. 3 (PAO/NF/QXO18), and the histopathology shown in FIG. 7.

Turning to `CCCCCC1=CCCC1=O` [2-pentyl-2-cyclopenten-1-one], the “lung pathology caused by Pseudomonas aeruginosa (percent of lung tissue showing consolidation)” value (Pseudomonas aeruginosa + α-hemolytic Streptococcus (CFX5), treated daily for six days with aerosolized compound, PAO/NF/QXO18 vs PAO/NF) is given as “greatly diminishes the increased lung pathology”.

For the compound autoinducer-2 [AI-2], the “lung pathology caused by Pseudomonas aeruginosa (percent of lung tissue showing consolidation)” value is reported as “increases the lung pathology even more” (AI-2 supplied endogenously by co-infecting α-hemolytic Streptococcus isolate CFX5, PAO/NF) and “increases the lung pathology” (rats inoculated with Pseudomonas aeruginosa alone, exposed to synthetic (exogenously supplied) AI-2, PAO/AI-2 vs PAO).
